Experimental data as given in paper PMC8745314, “Novel Tetrazole-Based Antimicrobial Agents Targeting Clinical Bacteria Strains: Exploring the Inhibition of Staphylococcus aureus DNA Topoisomerase IV and Gyrase” (International Journal of Molecular Sciences, 2021).
Values after ≈ are worked out from the molar mass of the structure shown.

Experiments:
Format in all cases: cell-based
E. coli 520 = test: MIC broth microdilution, clinical isolate; details: Escherichia coli; E. coli 520, clinical isolate, 19 h at 35 °C; read-out: minimal inhibitory concentration (MIC)
Description: (§1) In the next stage of the experiment, 8 of 11 compounds were selected for a clinical strain activity evaluation against S. aureus, S. epidermidis, E. coli, K. pneumoniae, and P. aeruginosa.
(§2) The antimicrobial assays were conducted using reference strains of bacteria derived from international microbe collections: American Type Culture Collection (ATCC) and National Collection of Type Culture (NCTC). The following standard strains of bacteria were used: Gram-positive—Staphylococcus aureus NCTC 4163, Staphylococcus aureus ATCC 25923, Staphylococcus aureus ATCC 6538, Staphylococcus aureus ATCC 29213, Staphylococcus epidermidis ATCC 12228, Staphylococcus epidermidis ATCC 35984, Gram-negative: Escherichia coli ATCC 25922, Pseudomonas aeruginosa ATCC 15442. Clinical strains of bacteria used in this study: Gram-positive: Staphylococcus epidermidis 5253, Staphylococcus epidermidis 4243, Staphylococcus aureus T5592, Staphylococcus aureus T5591 and Gram-negative: Escherichia coli 520, Escherichia coli 600, Klebsiella pneumoniae 510 and Pseudomonas aeruginosa 659 were obtained from the collection of the Department of Pharmaceutical Microbiology, Medical University of Warsaw, Poland and they were isolated from different biological materials taken from the patients hospitalized in the Warsaw Medical University hospitals. […] MIC was determined by the two-fold serial broth microdilution method in 96-well microtitration plates using Mueller–Hinton II broth medium (Becton Dickinson, Franklin Lakes, NJ, USA). The final inoculum of all studied bacteria was 10^6 CFU/mL (colony forming unit per milliliter). The stock solution of tested compounds was prepared in dimethyl sulfoxide (DMSO) and diluted to a maximum of 1% of solvent content with a sterile medium.

S. aureus T5592 = test: MIC broth microdilution, clinical isolate; details: Staphylococcus aureus, 19 h at 35 °C, read-out: minimal inhibitory concentration (MIC)
Description: as §1, §2

S. aureus T5591 = test: MIC broth microdilution, clinical isolate; details: Staphylococcus aureus, 19 h at 35 °C, read-out: minimal inhibitory concentration (MIC)
Description: as §1, §2

S. epidermidis 5253 = test: MIC broth microdilution, clinical isolate; details: Staphylococcus epidermidis; S. epidermidis 5253, clinical isolate, 19 h at 35 °C; read-out: minimal inhibitory concentration (MIC)
Description: as §1, §2

E. coli 600 = test: MIC broth microdilution, clinical isolate; details: Escherichia coli; E. coli 600, clinical isolate, 19 h at 35 °C; read-out: minimal inhibitory concentration (MIC)
Description: as §1, §2

P. aeruginosa 659 = test: MIC broth microdilution, clinical isolate; details: Pseudomonas aeruginosa; P. aeruginosa 659, clinical isolate, 19 h at 35 °C; read-out: minimal inhibitory concentration (MIC)
Description: as §1, §2

K. pneumoniae 510 = test: MIC broth microdilution, clinical isolate; details: Klebsiella pneumoniae; K. pneumoniae 510, clinical isolate, 19 h at 35 °C; read-out: minimal inhibitory concentration (MIC)
Description: as §1, §2

S. epidermidis 4243 = test: MIC broth microdilution, clinical isolate; details: Staphylococcus epidermidis; S. epidermidis 4243, clinical isolate, 19 h at 35 °C; read-out: minimal inhibitory concentration (MIC)
Description: as §1, §2

E. coli ATCC 25922 = test: MIC broth microdilution, standard strain; details: Escherichia coli, ATCC25922; E. coli ATCC 25922, standard strain, 19 h at 35 °C; read-out: minimal inhibitory concentration (MIC)
Description: (§3) All synthesized compounds were tested in vitro against a set of bacteria, including representative standard Gram-positive and Gram-negative rods. Compounds were screened for their minimal inhibitory concentrations (MICs). […] These three compounds were also found to be good inhibitors of the growth of Gram-negative rods: […] The antimicrobial assays were conducted using reference strains of bacteria derived from international microbe collections: American Type Culture Collection (ATCC) and National Collection of Type Culture (NCTC). The following standard strains of bacteria were used: Gram-positive-Staphylococcus aureus NCTC 4163, Staphylococcus aureus ATCC 25923, Staphylococcus aureus ATCC 6538, Staphylococcus aureus ATCC 29213, Staphylococcus epidermidis ATCC 12228, Staphylococcus epidermidis ATCC 35984, Gram-negative: Escherichia coli ATCC 25922, Pseudomonas aeruginosa ATCC 15442. Clinical strains of bacteria used in this study: Gram-positive: Staphylococcus epidermidis 5253, Staphylococcus epidermidis 4243, Staphylococcus aureus […], Staphylococcus aureus […] and Gram-negative: Escherichia coli 520, Escherichia coli 600, Klebsiella pneumoniae 510 and Pseudomonas aeruginosa 659 were obtained from the collection of the Department of Pharmaceutical Microbiology, Medical University of Warsaw, Poland and they were isolated from different biological materials taken from the patients hospitalized in the Warsaw Medical University hospitals. Antimicrobial activity was examined by the minimal inhibitory concentration (MIC) method under standard procedures provided by CLSI with some modifications. MIC was determined by the two-fold serial broth microdilution method in 96-well microtitration plates using Mueller-Hinton II broth medium (Becton Dickinson, Franklin Lakes, NJ, USA). The final inoculum of all studied bacteria was 10^6 CFU/mL (colony forming unit per milliliter). The stock solution of tested compounds was prepared in dimethyl sulfoxide (DMSO) and diluted to a maximum of 1% of solvent content with a sterile medium.

S. aureus ATCC 25923 = test: MIC broth microdilution, standard strain; details: Staphylococcus aureus, ATCC25923; S. aureus ATCC 25923, standard strain, 19 h at 35 °C; read-out: minimal inhibitory concentration (MIC)
Description: as §3

P. aeruginosa ATCC 15442 = test: MIC broth microdilution, standard strain; details: Pseudomonas aeruginosa, ATCC15442; P. aeruginosa ATCC 15442, standard strain, 19 h at 35 °C; read-out: minimal inhibitory concentration (MIC)
Description: as §3

S. aureus NCTC 4163 = test: MIC broth microdilution, standard strain; details: Staphylococcus aureus, NCTC4163; S. aureus NCTC 4163, standard strain, 19 h at 35 °C; read-out: minimal inhibitory concentration (MIC)
Description: as §3

| Structure (SMILES) | MIC (E. coli 520) [µg/mL] | MIC (S. aureus T5592) [µg/mL] | MIC (S. aureus T5591) [µg/mL] | MIC (S. epidermidis 5253) [µg/mL] | MIC (E. coli 600) [µg/mL] | MIC (P. aeruginosa 659) [µg/mL] | MIC (K. pneumoniae 510) [µg/mL] | MIC (S. epidermidis 4243) [µg/mL] | MIC (E. coli ATCC 25922) [µg/mL] | MIC (S. aureus ATCC 25923) [µg/mL] | MIC (P. aeruginosa ATCC 15442) [µg/mL] | MIC (S. aureus NCTC 4163) [µg/mL] |
| --- | --- | --- | --- | --- | --- | --- | --- | --- | --- | --- | --- | --- |
| CC1=C(C)C2(C)CC1(C)C1C(=O)N(Nc3nnnn3-c3ccccc3)C(=O)C12 (stereo not drawn) [Compound 6, 4,5,6,7-Tetramethyl-2-((1-phenyl-1H-tetrazol-5-yl)amino)-3a,4,7,7a-tetrahydro-1H-4,7-methanoisoindole-1,3(2H)-dione] | 8 (≈ 21.1 µM) | 4 (≈ 10.6 µM) | 4 (≈ 10.6 µM) | 4 (≈ 10.6 µM) | 8 (≈ 21.1 µM) | 16 (≈ 42.3 µM) | 16 (≈ 42.3 µM) | 4 (≈ 10.6 µM) | 8 (≈ 21.1 µM) | 2 (≈ 5.28 µM) | > 256 | 2 (≈ 5.28 µM) |
| Cc1ccc(-n2nnnc2NN2C(=O)C3C(C2=O)C2(C(C)C)C=CC3(C)CC2)cc1 (stereo not drawn) [Compound 10, 4-Isopropyl-7-methyl-2-((1-(p-tolyl)-1H-tetrazol-5-yl)amino)-3a,4,7,7a-tetrahydro-1H-4,7-ethanoisoindole-1,3(2H)-dione] | 32 (≈ 78.7 µM) | 16 (≈ 39.4 µM) | 16 (≈ 39.4 µM) | 16 (≈ 39.4 µM) | 32 (≈ 78.7 µM) | 32 (≈ 78.7 µM) | 32 (≈ 78.7 µM) | 8 (≈ 19.7 µM) | 16 (≈ 39.4 µM) | 4 (≈ 9.84 µM) | > 256 | 4 (≈ 9.84 µM) |
| CC(C)C12C=CC(C)(CC1)C1C(=O)N(Nc3nnnn3-c3ccc([N+](=O)[O-])cc3)C(=O)C12 (stereo not drawn) [Compound 8, 4-Isopropyl-7-methyl-2-((1-(4-nitrophenyl)-1H-tetrazol-5-yl)amino)-3a,4,7,7a-tetrahydro-1H-4,7-ethanoisoindole-1,3(2H)-dione] | > 256 | 16 (≈ 36.6 µM) | 16 (≈ 36.6 µM) | 16 (≈ 36.6 µM) | > 256 | > 256 | > 256 | 16 (≈ 36.6 µM) | > 256 | 8 (≈ 18.3 µM) | > 256 | 8 (≈ 18.3 µM) |
| CC1=C(C)C2(C)CC1(C)C1C(=O)N(Nc3nnnn3-c3ccccc3Br)C(=O)C12 (stereo not drawn) [Compound 3, 2-((1-(2-Bromophenyl)-1H-tetrazol-5-yl)amino)-4,5,6,7-tetramethyl-3a,4,7,7a-tetrahydro-1H-4,7-methanoisoindole-1,3(2H)-dione] | 1.6 (≈ 3.5 µM) | 0.8 (≈ 1.75 µM) | 0.8 (≈ 1.75 µM) | 0.8 (≈ 1.75 µM) | 1.6 (≈ 3.5 µM) | 1.6 (≈ 3.5 µM) | 3.2 (≈ 7 µM) | 0.8 (≈ 1.75 µM) | 0.4 (≈ 0.875 µM) | 0.1 (≈ 0.219 µM) | 16 (≈ 35 µM) | 0.1 (≈ 0.219 µM) |
| CC(C)C12C=CC(C)(CC1)C1C(=O)N(Nc3nnnn3-c3ccccc3Br)C(=O)C12 (stereo not drawn) [Compound 9, 2-((1-(2-Bromophenyl)-1H-tetrazol-5-yl)amino)-4-isopropyl-7-methyl-3a,4,7,7a-tetrahydro-1H-4,7-ethanoisoindole-1,3(2H)-dione] | 8 (≈ 17 µM) | 4 (≈ 8.49 µM) | 4 (≈ 8.49 µM) | 4 (≈ 8.49 µM) | 8 (≈ 17 µM) | 16 (≈ 33.9 µM) | 16 (≈ 33.9 µM) | 2 (≈ 4.24 µM) | 128 (≈ 272 µM) | 64 (≈ 136 µM) | > 256 | 64 (≈ 136 µM) |
| CC1=C(C)C2(C)CC1(C)C1C(=O)N(Nc3nnnn3-c3ccc([N+](=O)[O-])cc3)C(=O)C12 (stereo not drawn) [Compound 4, 4,5,6,7-Tetramethyl-2-((1-(4-nitrophenyl)-1H-tetrazol-5-yl)amino)-3a,4,7,7a-tetrahydro-1H-4,7-methanoisoindole-1,3(2H)-dione] | 256 (≈ 605 µM) | 16 (≈ 37.8 µM) | 32 (≈ 75.6 µM) | 16 (≈ 37.8 µM) | 256 (≈ 605 µM) | 256 (≈ 605 µM) | 256 (≈ 605 µM) | 32 (≈ 75.6 µM) | 256 (≈ 605 µM) | 8 (≈ 18.9 µM) | > 256 | 16 (≈ 37.8 µM) |
| CC1=C(C)C2(C)CC1(C)C1C(=O)N(Nc3nnnn3-c3cccc(C(F)(F)F)c3)C(=O)C12 (stereo not drawn) [Compound 1, 4,5,6,7-Tetramethyl-2-((1-(3-(trifluoromethyl)phenyl)-1H-tetrazol-5-yl)amino)-3a,4,7,7a-tetrahydro-1H-4,7-methanoisoindole-1,3(2H)-dione] | 3.2 (≈ 7.17 µM) | 0.8 (≈ 1.79 µM) | 0.8 (≈ 1.79 µM) | 0.8 (≈ 1.79 µM) | 3.2 (≈ 7.17 µM) | 1.6 (≈ 3.58 µM) | 3.2 (≈ 7.17 µM) | 0.8 (≈ 1.79 µM) | 0.4 (≈ 0.896 µM) | 0.2 (≈ 0.448 µM) | 12.8 (≈ 28.7 µM) | 0.2 (≈ 0.448 µM) |
| CC1=C(C)C2(C)CC1(C)C1C(=O)N(Nc3nnnn3-c3ccccc3Cl)C(=O)C12 (stereo not drawn) [Compound 2, 2-((1-(2-Chlorophenyl)-1H-tetrazol-5-yl)amino)-4,5,6,7-tetramethyl-3a,4,7,7a-tetrahydro-1H-4,7-methanoisoindole-1,3(2H)-dione] | 3.2 (≈ 7.75 µM) | 0.8 (≈ 1.94 µM) | 0.8 (≈ 1.94 µM) | 0.8 (≈ 1.94 µM) | 1.6 (≈ 3.88 µM) | 1.6 (≈ 3.88 µM) | 3.2 (≈ 7.75 µM) | 0.8 (≈ 1.94 µM) | 1.6 (≈ 3.88 µM) | 0.4 (≈ 0.969 µM) | 25.6 (≈ 62 µM) | 0.4 (≈ 0.969 µM) |
